From ChEMBL document CHEMBL1201862, “PubChem BioAssay data set” (2004)
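Grown in 96-well plates, cells were treated for 48 hours with each compound at five concentrations. Insufficient inhibition: endpoint recorded as highest concentration tested. At the GI50, growth is halved.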 The source made the active and inactive calls. No stated cut-off is given here; in the data, active = GI50 up to about 1.1 µM and inactive = higher.

Assays:
Experiment in all cases: inhibition of tumour cell growth, NCI panel, 48 h
[1] = test system: SK-MEL-5
[2] = test system: XF498
[3] = test system: UACC-257
[4] = test system: NCI-H226
[5] = test system: SW-620
[6] = test system: HOP-92
[7] = test system: COLO 205
[8] = test system: HT-29
[9] = test system: A549
[10] = test system: LOX IMVI
[11] = test system: NCI-H460
[12] = test system: HOP-62
[13] = test system: KM12
[14] = test system: HOP-18
[15] = test system: OVCAR-4
[16] = test system: UO-31
[17] = test system: CCRF-CEM
[18] = test system: SN12C
[19] = test system: SF-295
[20] = test system: SNB-78
[21] = test system: SNB-75
[22] = test system: SNB-19
[23] = test system: ACHN
[24] = test system: RXF 393
[25] = test system: MOLT-4
[26] = test system: EKVX
[27] = test system: SK-OV-3
[28] = test system: RPMI-8226
[29] = test system: SK-MEL-2
[30] = test system: K562
[31] = test system: DMS-273
[32] = test system: LXFL 529
[33] = test system: CAKI-1
[34] = test system: UACC-62
[35] = test system: SK-MEL-28
[36] = test system: Malme-3M
[37] = test system: TK-10
[38] = test system: IGROV-1
[39] = test system: NCI-H522
[40] = test system: KM-20L2
[41] = test system: SF-539
[42] = test system: M14
[43] = test system: OVCAR-5
[44] = test system: OVCAR-8
[45] = test system: HL-60
[46] = test system: NCI-H23
[47] = test system: HCT-116
[48] = test system: U-251
[49] = test system: 786-0
[50] = test system: HCT-15
[51] = test system: SF-268
[52] = test system: A498
[53] = test system: SR
[54] = test system: M19-MEL
[55] = test system: HCC 2998
[56] = test system: DLD-1
[57] = test system: OVCAR-3
[58] = test system: DMS-114

In the case of `COc1ccc(/C=C2\C(=O)Nc3ccccc32)cc1OC`, the GI50 [1] is reported as 64.4 µM (inactive), the GI50 [2] is reported as > 100 µM (inactive) and the GI50 [3] is reported as > 100 µM (inactive). For the same compound, the GI50 [4] was > 100 µM (inactive), the GI50 [5] was 45.1 µM (inactive) and the GI50 [6] was 44.6 µM (inactive). For the same compound, the GI50 [7] was > 100 µM (inactive), the GI50 [8] was > 100 µM (inactive) and the GI50 [9] was > 100 µM (inactive). The GI50 [10] was 45.3 µM (inactive), the GI50 [11] was 78.9 µM (inactive) and the GI50 [12] was > 100 µM (inactive). For the same compound, the GI50 [13] was 85.7 µM (inactive), the GI50 [14] was > 100 µM (inactive) and the GI50 [15] was 97.3 µM (inactive). For the same compound, the GI50 [16] was 86.3 µM (inactive), the GI50 [17] was > 100 µM (inactive) and the GI50 [18] was > 100 µM (inactive). For the same compound, the GI50 [19] was > 100 µM (inactive), the GI50 [20] was 37.7 µM (inactive) and the GI50 [21] was 24.5 µM (inactive). For the same compound, the GI50 [22] was 38.5 µM (inactive), the GI50 [23] was > 100 µM (inactive) and the GI50 [24] was > 100 µM (inactive). The GI50 [25] was > 100 µM (inactive), the GI50 [26] was > 100 µM (inactive) and the GI50 [27] was 32 µM (inactive). The GI50 [28] was 23.1 µM (inactive), the GI50 [29] was > 100 µM (inactive) and the GI50 [30] was 44.7 µM (inactive). The GI50 [31] was 64.7 µM (inactive), the GI50 [32] was 58.1 µM (inactive) and the GI50 [33] was > 100 µM (inactive). The GI50 [34] was > 100 µM (inactive), the GI50 [35] was > 100 µM (inactive) and the GI50 [36] was > 100 µM (inactive). For the same compound, the GI50 [37] was > 100 µM (inactive), the GI50 [38] was > 100 µM (inactive) and the GI50 [39] was 79.3 µM (inactive). For the same compound, the GI50 [40] was > 100 µM (inactive), the GI50 [41] was 40.6 µM (inactive) and the GI50 [42] was > 100 µM (inactive). The GI50 [43] was > 100 µM (inactive), the GI50 [44] was > 100 µM (inactive) and the GI50 [45] was 46.7 µM (inactive). The GI50 [46] was > 100 µM (inactive), the GI50 [47] was > 100 µM (inactive) and the GI50 [48] was 28.9 µM (inactive). The GI50 [49] was 33.1 µM (inactive), the GI50 [50] was 53 µM and the GI50 [51] was > 100 µM (inactive). The GI50 [52] was > 100 µM (inactive).
In the case of `OC1CCOc2ccccc21` (centres undefined), the GI50 [53] is reported as > 100 µM (inactive), the GI50 [1] is reported as > 100 µM (inactive) and the GI50 [2] is reported as > 100 µM (inactive). The GI50 [4] was > 100 µM (inactive), the GI50 [5] was > 100 µM (inactive) and the GI50 [7] was > 100 µM (inactive). For the same compound, the GI50 [8] was > 100 µM (inactive), the GI50 [9] was > 100 µM (inactive) and the GI50 [54] was > 100 µM (inactive). The GI50 [10] was > 100 µM (inactive), the GI50 [11] was > 100 µM (inactive) and the GI50 [12] was > 100 µM (inactive). For the same compound, the GI50 [13] was > 100 µM (inactive), the GI50 [14] was 56.2 µM (inactive) and the GI50 [15] was > 100 µM (inactive). For the same compound, the GI50 [16] was > 100 µM (inactive), the GI50 [17] was > 100 µM (inactive) and the GI50 [18] was > 100 µM (inactive). For the same compound, the GI50 [55] was > 100 µM (inactive), the GI50 [22] was > 100 µM (inactive) and the GI50 [23] was > 100 µM (inactive). For the same compound, the GI50 [24] was > 100 µM (inactive), the GI50 [56] was > 100 µM (inactive) and the GI50 [25] was > 100 µM (inactive). The GI50 [26] was > 100 µM (inactive), the GI50 [27] was > 100 µM (inactive) and the GI50 [28] was > 100 µM (inactive). For the same compound, the GI50 [29] was > 100 µM (inactive), the GI50 [30] was > 100 µM (inactive) and the GI50 [31] was > 100 µM (inactive). The GI50 [57] was > 100 µM (inactive), the GI50 [32] was > 100 µM (inactive) and the GI50 [33] was > 100 µM (inactive). For the same compound, the GI50 [34] was > 100 µM (inactive), the GI50 [35] was > 100 µM (inactive) and the GI50 [58] was > 100 µM (inactive). For the same compound, the GI50 [36] was > 100 µM (inactive), the GI50 [37] was > 100 µM (inactive) and the GI50 [38] was > 100 µM (inactive). The GI50 [39] was > 100 µM (inactive), the GI50 [40] was > 100 µM (inactive) and the GI50 [41] was > 100 µM (inactive). For the same compound, the GI50 [42] was > 100 µM (inactive), the GI50 [43] was > 100 µM (inactive) and the GI50 [44] was > 100 µM (inactive). For the same compound, the GI50 [45] was > 100 µM (inactive), the GI50 [46] was > 100 µM (inactive) and the GI50 [47] was > 100 µM (inactive). The GI50 [48] was > 100 µM (inactive), the GI50 [50] was > 100 µM and the GI50 [51] was > 100 µM (inactive).
For `Nc1ccc2nc(Nc3ccc(F)cc3)cnc2c1`, the GI50 [53] was 36.1 µM (inactive), the GI50 [1] was > 100 µM (inactive) and the GI50 [2] was > 100 µM (inactive). The GI50 [3] was > 100 µM (inactive), the GI50 [4] was > 100 µM (inactive) and the GI50 [5] was > 100 µM (inactive). The GI50 [7] was > 100 µM (inactive), the GI50 [8] was > 100 µM (inactive) and the GI50 [9] was > 100 µM (inactive). For the same compound, the GI50 [54] was > 100 µM (inactive), the GI50 [10] was > 100 µM (inactive) and the GI50 [11] was > 100 µM (inactive). The GI50 [12] was > 100 µM (inactive), the GI50 [13] was > 100 µM (inactive) and the GI50 [15] was > 100 µM (inactive). The GI50 [16] was 47.2 µM (inactive), the GI50 [17] was 30.5 µM (inactive) and the GI50 [18] was > 100 µM (inactive). For the same compound, the GI50 [19] was > 100 µM (inactive), the GI50 [21] was > 100 µM (inactive) and the GI50 [55] was > 100 µM (inactive). For the same compound, the GI50 [22] was > 100 µM (inactive), the GI50 [23] was > 100 µM (inactive) and the GI50 [56] was > 100 µM (inactive). For the same compound, the GI50 [25] was 27.7 µM (inactive), the GI50 [26] was > 100 µM (inactive) and the GI50 [28] was 61.7 µM (inactive). The GI50 [29] was > 100 µM (inactive), the GI50 [30] was 81.5 µM (inactive) and the GI50 [31] was > 100 µM (inactive). The GI50 [57] was 90.4 µM (inactive), the GI50 [33] was > 100 µM (inactive) and the GI50 [35] was > 100 µM (inactive). For the same compound, the GI50 [58] was 34.4 µM (inactive), the GI50 [36] was > 100 µM (inactive) and the GI50 [37] was 87.3 µM (inactive). For the same compound, the GI50 [39] was 44.4 µM (inactive), the GI50 [41] was > 100 µM (inactive) and the GI50 [42] was > 100 µM (inactive). For the same compound, the GI50 [43] was > 100 µM (inactive), the GI50 [44] was > 100 µM (inactive) and the GI50 [45] was 54.7 µM (inactive). The GI50 [47] was > 100 µM (inactive), the GI50 [49] was > 100 µM (inactive) and the GI50 [50] was > 100 µM. For the same compound, the GI50 [51] was 74.5 µM (inactive).
